One block for each compound: values may come before it.
Test system: 565726-208-R1-J5-PDC complex spheroids, growth inhibition
Test: Anticancer human tumor 565726-208-R1-J5-PDC patient-derived pancreatic adenocarcinoma cell line growth inhibition [RAS]
Conditions: for IC50: curve of first compound; for viability, T/C: stronger effect = lower value
Outline: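 Agents were tested in combination matrices in half-log decrements from a top concentration at or near clinical Cmax (10 microM if undetermined). Targets were multi-cell spheroids of tumour lines plus HUVEC and MSC stromal cells.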

[1] = second compound 0.000949 µM, first compound 0.00316 µM
[2] = second compound 0.000949 µM, first compound 0.01 µM
[3] = second compound 0.000949 µM, first compound 0.0316 µM
[4] = second compound 0.000949 µM, first compound 0.1 µM
[5] = second compound 0.000949 µM, first compound 0.316 µM
[6] = second compound 0.000949 µM, first compound 1 µM
[7] = second compound 0.003 µM, first compound 0.00316 µM
[8] = second compound 0.003 µM, first compound 0.01 µM
[9] = second compound 0.003 µM, first compound 0.0316 µM
[10] = second compound 0.003 µM, first compound 0.1 µM
[11] = second compound 0.003 µM, first compound 0.316 µM
[12] = second compound 0.003 µM, first compound 1 µM
[13] = second compound 0.00949 µM, first compound 0.00316 µM
[14] = second compound 0.00949 µM, first compound 0.01 µM
[15] = second compound 0.00949 µM, first compound 0.0316 µM
[16] = second compound 0.00949 µM, first compound 0.1 µM
[17] = second compound 0.00949 µM, first compound 0.316 µM
[18] = second compound 0.00949 µM, first compound 1 µM
[19] = second compound 0.03 µM, first compound 0.00316 µM
[20] = second compound 0.03 µM, first compound 0.01 µM
[21] = second compound 0.03 µM, first compound 0.0316 µM
[22] = second compound 0.03 µM, first compound 0.1 µM
[23] = second compound 0.03 µM, first compound 0.316 µM
[24] = second compound 0.03 µM, first compound 1 µM
[25] = second compound 0.0949 µM, first compound 0.00316 µM
[26] = second compound 0.0949 µM, first compound 0.01 µM
[27] = second compound 0.0949 µM, first compound 0.0316 µM
[28] = second compound 0.0949 µM, first compound 0.1 µM
[29] = second compound 0.0949 µM, first compound 0.316 µM
[30] = second compound 0.0949 µM, first compound 1 µM
[31] = second compound 0.3 µM, first compound 0.00316 µM
[32] = second compound 0.3 µM, first compound 0.01 µM
[33] = second compound 0.3 µM, first compound 0.0316 µM
[34] = second compound 0.3 µM, first compound 0.1 µM
[35] = second compound 0.3 µM, first compound 0.316 µM
[36] = second compound 0.3 µM, first compound 1 µM
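Note: spheroids exposed to compounds for seven days before readout.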
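Throughout, for viability, T/C: 100% = DMSO vehicle control viability.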

IC50 (second compound 0.000949 µM): 185 nM
IC50 (second compound 0.003 µM): 11 nM
IC50 (second compound 0.00949 µM): < 3.16 nM
IC50 (second compound 0.03 µM): < 3.16 nM
IC50 (second compound 0.0949 µM): < 3.16 nM
IC50 (second compound 0.3 µM): < 3.16 nM
Structure (SMILES): C=CC(=O)Nc1cc(Nc2nccc(-c3cn(C)c4ccccc34)n2)c(OC)cc1N(C)CCN(C)C + CCn1c(-c2cc(N3CCN(C)CC3)cnc2C(C)OC)c2c3cc(ccc31)-c1csc(n1)CC(NC(=O)C1CC1C)C(=O)N1CCCC(N1)C(=O)OCC(C)(C)C2
viability, T/C [1]: 63.2%
viability, T/C [2]: 62.6%
viability, T/C [3]: 59.9%
viability, T/C [4]: 56.4%
viability, T/C [5]: 44.6%
viability, T/C [6]: 34.3%
viability, T/C [7]: 58.9%
viability, T/C [8]: 44.3%
viability, T/C [9]: 49.2%
viability, T/C [10]: 38.8%
viability, T/C [11]: 36.1%
viability, T/C [12]: 28.2%
viability, T/C [13]: 43.2%
viability, T/C [14]: 38.3%
viability, T/C [15]: 34.9%
viability, T/C [16]: 30.9%
viability, T/C [17]: 24.7%
viability, T/C [18]: 20.4%
viability, T/C [19]: 30.4%
viability, T/C [20]: 30.1%
viability, T/C [21]: 29.6%
viability, T/C [22]: 25.1%
viability, T/C [23]: 19%
viability, T/C [24]: 15.5%
viability, T/C [25]: 28.3%
viability, T/C [26]: 24.6%
viability, T/C [27]: 21.4%
viability, T/C [28]: 18.2%
viability, T/C [29]: 16.4%
viability, T/C [30]: 14.7%
viability, T/C [31]: 23.4%
viability, T/C [32]: 21.2%
viability, T/C [33]: 18.8%
viability, T/C [34]: 16.3%
viability, T/C [35]: 15.5%
viability, T/C [36]: 11.6%

IC50 (second compound 0.000949 µM): 103 nM
IC50 (second compound 0.003 µM): 10.2 nM
IC50 (second compound 0.00949 µM): < 3.16 nM
IC50 (second compound 0.03 µM): < 3.16 nM
IC50 (second compound 0.0949 µM): < 3.16 nM
IC50 (second compound 0.3 µM): < 3.16 nM
Structure (SMILES): O=C(c1ccc(F)c(F)c1Nc1ccc(I)cc1F)N1CC(O)([C@@H]2CCCCN2)C1 + CCn1c(-c2cc(N3CCN(C)CC3)cnc2C(C)OC)c2c3cc(ccc31)-c1csc(n1)CC(NC(=O)C1CC1C)C(=O)N1CCCC(N1)C(=O)OCC(C)(C)C2
viability, T/C [1]: 66.8%
viability, T/C [2]: 59.9%
viability, T/C [3]: 63.8%
viability, T/C [4]: 49.5%
viability, T/C [5]: 29.4%
viability, T/C [6]: 9.76%
viability, T/C [7]: 55.3%
viability, T/C [8]: 49.6%
viability, T/C [9]: 40.7%
viability, T/C [10]: 25.4%
viability, T/C [11]: 14%
viability, T/C [12]: 6.79%
viability, T/C [13]: 39.3%
viability, T/C [14]: 36.5%
viability, T/C [15]: 27.8%
viability, T/C [16]: 16.7%
viability, T/C [17]: 7.84%
viability, T/C [18]: 4.42%
viability, T/C [19]: 23.9%
viability, T/C [20]: 23.5%
viability, T/C [21]: 18.2%
viability, T/C [22]: 8.87%
viability, T/C [23]: 4.75%
viability, T/C [24]: 4.55%
viability, T/C [25]: 17.6%
viability, T/C [26]: 12.8%
viability, T/C [27]: 8.13%
viability, T/C [28]: 5.18%
viability, T/C [29]: 4.88%
viability, T/C [30]: 4.22%
viability, T/C [31]: 14.9%
viability, T/C [32]: 12.6%
viability, T/C [33]: 6.29%
viability, T/C [34]: 4%
viability, T/C [35]: 3.7%
viability, T/C [36]: 3.03%

— PubChem BioAssay AID2060899 (Molecular Pharmacology Branch, DTP, NCI, 2025)
